Assay results taken from article PMC9180926, “Discovery of Novel 3-Hydroxyquinazoline-2,4(1H,3H)-Dione Derivatives: A Series of Metal Ion Chelators with Potent Anti-HCV Activities” (International Journal of Molecular Sciences, 2022).

Experiments:
[1] = system: HCV 1b replicon cells (Huh-7.5.1); experiment: Anti-HCV assay, HCV 1b replicon cells with luciferase reporter; type: cell-based, hepatitis C virus (HCV) subtype 1b; settings: Hepatitis C virus, HCV 1b replicon cells; for inhibition at 10 µM / inhibition at 25 µM: Huh-7.5.1, 72 h, 72 h; for inhibition at 10 µM: inhibitory rate at 10 μM, read-out: HCV Inhibition 10 μM; for inhibition at 25 µM: inhibitory rate at 25 μM, read-out: HCV Inhibition 25 μM; for EC50: Huh-7.5.1, 50% effective concentration, mean ± SD
Procedure: (§1) The HCV replicons were validated as convenient and effective models for testing the anti-HCV activity. Since HCV subtype 1b is one of the major subtypes worldwide, especially in China, the replicon model from the Huh-7.5.1 cell line integrating HCV 1b genome encoding the nonstructural proteins was chosen to evaluate the anti-HCV activities of 3-hydroxyquinazoline-2,4(1H,3H)-diones. The inhibitory rates of the compounds on HCV replicon cells were determined at concentrations of 25 μM and 10 μM, respectively. The broad-spectrum antiviral drug ribavirin (RBV) and the NS5B nucleoside inhibitor 2′-C-methyladenosine (2CMA) were selected as positive controls. The cytotoxicity of these compounds on replicon cells was determined using the cell counting kit-8 (CCK-8) assay.
HCV 1b replicon cells (Huh-7.5.1) containing luciferase reporter gene were kindly provided by Prof. Zhenghong Yuan (Key Laboratory of Medical Molecular Virology, Fudan University, Shanghai, China). The replicon cells were plated at 1.5 × 10^4 cells per well in a 48-well plate (Corning Inc., New York, NY, USA) at 5% CO2/37 °C. The culture medium was Dulbecco’s Modified Eagle Medium (DMEM, pH 7.3, Shanghai XP Biomed Ltd., Shanghai, China) containing 10% fetal bovine serum (Shanghai XP Biomed Ltd., Shanghai, China), 10^5 U/L penicillin, 0.1 g/L streptomycin, and 0.5 μg/mL blasticidin. After 12 h, the culture medium in each well was replaced with 300 μL of pre-prepared fresh culture medium containing test compound (dissolved in DMSO with specific concentration) or blank DMSO. The final concentration of DMSO in the culture medium in the plate was 0.1%. Each group was tested at least twice in parallel. Ribavirin and 2CMA were used as the positive controls. After incubating the drug-added plate at 5% CO2/37 °C for 72 h, the medium was removed, and each well was washed with 300 μL of phosphate buffer solution (PBS, Shanghai XP Biomed Ltd., Shanghai, China). The cells in each well were then lysed with 50 μL of 1× lysis buffer (E2820, Promega, Madison, WI, USA). Subsequently, 50 μL of 1× luciferase assay substrate (E2820, Promega, Madison, WI, USA) was mixed with 20 μL of the harvested cell lysates.
The inhibitory rates under at least six different concentration gradients were imported into GraphPad Prism 7.0 software to calculate the anti-HCV EC50 values of the compounds using the nonlinear fitting method.

[2] = system: HCV 1b replicon cells (Huh-7.5.1); experiment: as above; type: cell-based, hepatitis C virus (HCV) subtype 1b; settings: Hepatitis C virus, Huh-7.5.1, 72 h, inhibitory rate at 5 μM
[3] = Cytotoxicity assay (CCK-8) on replicon cells; type: cell-based; settings: human, HCV 1b replicon cells (Huh-7.5.1); 50% cytotoxic concentration; CCK-8, HCV 1b replicon cells, 72 h
Procedure: as §1
The HCV 1b replicon cells were incubated and treated with test compounds or blank DMSO in a 48-well plate using the same materials and methods as described in the experimental procedure of anti-HCV assay. The final concentration of DMSO in each well was 0.1%. After 72 h of drug treatment, the culture medium in the well plate was removed, and cells in each well were washed with 300 μL of PBS. A total of 300 μL of pre-prepared fresh culture medium containing 30 μL CCK-8 reagent (Donjindo, Kumamoto, Japan) was added to each well, and the plate was incubated at 5% CO2/37 °C for 2 h. The OD (optical density) value of each well at 450 nm was measured using a multi-function microplate reader (SpectraMax M5, Molecular Devices, San Jose, CA, USA). The death ratio of each well was calculated using the following equation, in which ODcompound or ODblank represents the measured OD value of the compound group or the blank control (DMSO), respectively:death ratio = (1−ODcompound/ODblank) × 100%(2)
The cell death data under at least six different concentration gradients were imported into GraphPad Prism 7.0.0 software (GraphPad Software Inc., San Diego, CA, USA), and the CC50 (50% cytotoxic concentration) values were calculated using the nonlinear fitting method.

| SMILES | inhibition at 10 µM [1] [%] | inhibition at 25 µM [1] [%] | inhibition at 5 µM [2] [%] | EC50 [1] [µM] | CC50 at 72 h [3] [µM] |
| --- | --- | --- | --- | --- | --- |
| O=c1[nH]c2cc(-c3cccnc3)ccc2c(=O)n1O [21r, 3-Hydroxy-7-(pyridin-3-yl)quinazoline-2,4(1H,3H)-dione] | 26.9 | 65.4 | -5.5 | – | – |
| O=c1[nH]c2cc(-c3ccc(F)cc3)ccc2c(=O)n1O [21f, 7-(4-Fluorophenyl)-3-hydroxyquinazoline-2,4(1H,3H)-dione] | 78.8 | – | 73.4 | 3.1 ± 0.1 | 4.1 ± 0.6 |
| O=c1[nH]c2ccc(-c3ccccc3)cc2c(=O)n1O [21a, 3-Hydroxy-6-phenylquinazoline-2,4(1H,3H)-dione] | 65.4 | – | 35.6 | 4.3 ± 0.7 | 5.5 ± 1 |
| Cn1c(=O)n(O)c(=O)c2ccc(-c3ccc(F)cc3)cc21 [23c, 7-(4-Fluorophenyl)-3-hydroxy-1-methylquinazoline-2,4(1H,3H)-dione] | 79.1 | – | 40.6 | 4.6 ± 0.5 | 8.1 ± 0.2 |
| O=c1[nH]c2cc(Br)ccc2c(=O)n1O [compound 19, 7-Bromo-3-hydroxyquinazoline-2,4(1H,3H)-dione] | 41.1 | 72 | 23.5 | 19 ± 1.8 | 37.6 ± 2.6 |
| O=c1[nH]c2ccc(-c3cccc([N+](=O)[O-])c3)cc2c(=O)n1O [21d, 3-Hydroxy-6-(3-nitrophenyl)quinazoline-2,4(1H,3H)-dione] | 78.5 | – | 71.1 | 4.8 ± 0.8 | 6.6 ± 1.5 |
| Nc1cccc(-c2ccc3c(=O)n(O)c(=O)[nH]c3c2)c1 [21j, 7-(3-Aminophenyl)-3-hydroxyquinazoline-2,4(1H,3H)-dione] | 51 | – | 16.1 | 7.3 ± 1.3 | 13 ± 0.8 |
| Nc1ccccc1-c1ccc2c(=O)n(O)c(=O)[nH]c2c1 [21g, 7-(2-Aminophenyl)-3-hydroxyquinazoline-2,4(1H,3H)-dione] | 64.7 | – | 24.7 | 8.8 ± 1.8 | 16.2 ± 0.7 |
| COc1ccc(-c2ccc3[nH]c(=O)n(O)c(=O)c3c2)cc1 [21c, 3-Hydroxy-6-(4-methoxyphenyl)quinazoline-2,4(1H,3H)-dione] | 48.2 | – | 11.1 | 7.2 ± 0.8 | 14.8 ± 5.3 |
| O=c1[nH]c2ccc(-c3ccc(F)cc3)cc2c(=O)n1O [21b, 6-(4-Fluorophenyl)-3-hydroxyquinazoline-2,4(1H,3H)-dione] | 79.7 | – | 47.7 | 6.1 ± 0.1 | 8 ± 2.2 |
| O=c1[nH]c2cc(-c3ccco3)ccc2c(=O)n1O [21s, 7-(Furan-2-yl)-3-hydroxyquinazoline-2,4(1H,3H)-dione] | 72.6 | – | 56.2 | 4 ± 0.5 | 16.3 ± 0.6 |
| Cn1c(=O)n(O)c(=O)c2cc(-c3cccc([N+](=O)[O-])c3)ccc21 [23a, 3-Hydroxy-1-methyl-6-(3-nitrophenyl)quinazoline-2,4(1H,3H)-dione] | 66.5 | – | – | 2.3 ± 0.1 | 5.2 ± 0.1 |
| O=c1[nH]c2c(-c3ccccc3)cccc2c(=O)n1O [21u, 3-Hydroxy-8-phenylquinazoline-2,4(1H,3H)-dione] | 27.5 | 40.9 | 1.8 | – | – |
| O=c1[nH]c2cc(-c3ccc(F)c(Cl)c3)ccc2c(=O)n1O [21l, 7-(3-Chloro-4-fluorophenyl)-3-hydroxyquinazoline-2,4(1H,3H)-dione] | 49.7 | – | 25.9 | 7.9 ± 1 | 40.7 ± 3.9 |
| O=C(Cn1c(=O)n(O)c(=O)c2ccc(-c3ccco3)cc21)Nc1ccccc1Cl [23j, N-(2-Chlorophenyl)-2-(7-(furan-2-yl)-3-hydroxy-2,4-dioxo-3,4-dihydroquinazolin-1(2H)-yl)acetamide] | 47.8 | 80 | – | 5.2 ± 1.9 | 12.2 ± 3.3 |
| CCn1c(=O)n(O)c(=O)c2ccc(-c3ccccc3)cc21 [23e, 1-Ethyl-3-hydroxy-7-phenylquinazoline-2,4(1H,3H)-dione] | 24.6 | 77.5 | – | 26.8 ± 2.5 | 39.5 ± 2.3 |
| Cn1c(=O)n(O)c(=O)c2ccc(-c3ccccc3)cc21 [23b, 3-Hydroxy-1-methyl-7-phenylquinazoline-2,4(1H,3H)-dione] | 79.5 | – | 39.2 | 3.9 ± 1 | 6.7 ± 0.3 |
| O=C(Cn1c(=O)n(O)c(=O)c2ccccc21)c1ccccc1 [10e, 3-Hydroxy-1-(2-oxo-2-phenylethyl)quinazoline-2,4(1H,3H)-dione] | 46.1 | 68 | – | 11.3 ± 3 | 13.1 ± 1.7 |
| COc1ccc(-c2ccc3c(=O)n(O)c(=O)[nH]c3c2)cc1F [21o, 7-(3-Fluoro-4-methoxyphenyl)-3-hydroxyquinazoline-2,4(1H,3H)-dione] | 71.3 | – | – | 3.9 ± 2.2 | 4.3 ± 0.4 |
